Assays:
[1] = target: Peptidase, CTSG (Cathepsin G) (Homo sapiens, UniProt P08311); test: Safety screen; format: biochemical
Procedure: Blood cell counts, kinase profiler, safety screen, bacterial cytotoxicity, Ames, micronucleus assays were performed by the company Eurofins (France).

[2] = target: Opiate κ(OP2, KOP) (Homo sapiens, UniProt P41145); test: Safety screen; format: binding
Procedure: (§1) Blood cell counts, kinase profiler, safety screen, bacterial cytotoxicity, Ames, micronucleus assays were performed by the company Eurofins (France). The kinase profiler was performed by the company Eurofins (Discovery, Panlab and Cerep).

[3] = Ames fluctuation test (2nd group); format: cell-based
Text: Data S3. Ames-fluctuation assay-A41.
Test Concentration Count Positive Significance Fisher Exact Test
(# of wells) (- to +++) (p-value)
Ames fluctuation test (TA100 + S9

[4] = target: T1, RAC1 (Mus musculus, UniProt P63001); test: RAC-GTP pull-down assay, EGF-stimulated NIH/3T3 fibroblasts; format: cell-based; details: 10^-5 M, 1 h, EGF 10 ng/mL 5 min
T1 construct: endogenous in cells; host or cells: NIH/3T3 fibroblasts (ATCC CRL-1658), EGF-stimulated
Procedure: Figure 2 Identification of a new RAC1 inhibitor (A) Effect of A41 and NSC23766 on ruffle formation (white arrows) induced by EGF (10 ng/mL) in NIH 3T3 cells in serum-free culture medium (CTL). Inhibitors were added at indicated concentration 1 h prior to EGF stimulation. To assess cytoskeleton organization, cells were incubated with Alexa Fluor 488 phalloidin to visualize F-actin. Results shown are representative of 3 independent experiments. Corresponding concentration-response curves have been established by counting the percentages of cells with ruffles (scale bars: 10 μm). (B) Immunoblot analysis and associated quantification of RAC-GTP level and total RAC expression in NIH 3T3 cells stimulated by EGF (10 ng/mL, 5 min) and pre-incubated or not (−) with NSC23766, A41, or A415 at 10^−5 M for 1 h (∗∗∗p < 0.001 vs. controls without EGF stimulation, ^###p < 0.001 vs. controls with EGF stimulation) (N > 3). (C) Representative surface plasmon resonance (SPR) sensograms of binding of immobilized RAC1 with increasing concentrations of A41 with or without EDTA (20 mM) (N > 3). (D) Representative in vitro nucleotide exchange catalyzed by the DH-PH of TIAM (10 nM) measured by the binding of fluorescent mant-GTP (1 μM) to RAC1 (0.5 μM, preloaded with GDP) in the presence of indicated concentrations of A41 (out of N = 6). Dotted lines correspond to the experimental curves, and continuous lines represent the fit of experimental points. (E) Kobs and Kmax were determined in each condition (N = 6). (F) Predicted binding modes of A4 to the NSC23766-binding site (left) or the GDP-binding pocket of RAC1 (right). In the NSC23766-binding site of RAC1, the compound A4 (carbon atoms in blue) makes 2 hydrogen bonds (green dotted line) with Ser71 (S71) and 10 hydrophobic interactions (pink dotted line) with Ala3 (A3), Lys5 (K5), Val36 (V36), Trp56 (W56), Tyr64 (Y64), and Leu67 (L67) leading to a docking score of −6.03 kcal/mol. The GDP molecule is shown with fine line. The P loop is shown in yellow, the switch 1 in orange, and the switch 2 in green. […]
Pull-down assay using GST-PBD fusion proteins were performed on NIH-3T3 lysates to assess RAC1 activity as previously described.[63] The precipitated active RAC was subjected to SDS-PAGE and detected by immunoblot with anti-RAC1 antibody (BD biosciences) (dilution 1/1000). […]
screening molecules (10^-5 M) on NIH/3T3 cell adhesion (xCELLingence Real-time cellanalysis, Agilent), migration (CYTOO Mobility plates) and proliferation (xCELLingence Real-time cell analysis, Agilent) .The level of RAC activation is determinedby the detection of RAC-GTP (pull-down assay) in NIH/3T3 cell treated with EGF (10 ng/mL) and the differentmolecules and normalize to the level of RAC activity measuredin the presenceof the reference RAC inhibitor EHT1864.

[5] = target: PI3K (p110a/p85a)(h) (Homo sapiens, UniProt P42336); test: Kinase Profiler; format: biochemical
Procedure: (§2) The kinase profiler was performed by the company Eurofins (Discovery, Panlab and Cerep).

[6] = target: cKit(h) (Homo sapiens, UniProt P10721); test: Kinase Profiler; format: biochemical
Procedure: as §1

[7] = target: CaMKK2(h) (Homo sapiens, UniProt Q96RR4); test: Kinase Profiler; format: biochemical
Procedure: as §2

[8] = target: TBK1(h) (Homo sapiens, UniProt Q9UHD2); test: Kinase Profiler; format: biochemical
Procedure: as §1

[9] = tested on: Calcium Channel L-Type, Benzothiazepine; test: Safety screen; format: binding, rat

Chain of CaMKK2(h) (Q96RR4 whole entry): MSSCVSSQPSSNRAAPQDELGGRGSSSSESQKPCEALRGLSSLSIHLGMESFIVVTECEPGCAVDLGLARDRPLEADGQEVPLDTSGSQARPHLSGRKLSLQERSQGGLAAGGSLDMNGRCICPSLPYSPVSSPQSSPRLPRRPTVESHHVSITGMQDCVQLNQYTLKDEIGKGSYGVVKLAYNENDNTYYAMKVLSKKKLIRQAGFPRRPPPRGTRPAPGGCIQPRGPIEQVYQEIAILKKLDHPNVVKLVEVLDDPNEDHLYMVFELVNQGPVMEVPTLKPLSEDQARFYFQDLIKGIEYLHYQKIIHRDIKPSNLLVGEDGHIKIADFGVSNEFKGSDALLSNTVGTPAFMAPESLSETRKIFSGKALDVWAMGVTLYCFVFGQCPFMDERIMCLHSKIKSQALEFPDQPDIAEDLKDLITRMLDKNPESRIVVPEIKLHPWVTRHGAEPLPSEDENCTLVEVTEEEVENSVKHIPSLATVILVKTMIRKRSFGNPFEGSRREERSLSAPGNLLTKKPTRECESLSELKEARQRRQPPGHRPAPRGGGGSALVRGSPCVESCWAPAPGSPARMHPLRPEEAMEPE
Chain of TBK1(h) (Q9UHD2 whole entry): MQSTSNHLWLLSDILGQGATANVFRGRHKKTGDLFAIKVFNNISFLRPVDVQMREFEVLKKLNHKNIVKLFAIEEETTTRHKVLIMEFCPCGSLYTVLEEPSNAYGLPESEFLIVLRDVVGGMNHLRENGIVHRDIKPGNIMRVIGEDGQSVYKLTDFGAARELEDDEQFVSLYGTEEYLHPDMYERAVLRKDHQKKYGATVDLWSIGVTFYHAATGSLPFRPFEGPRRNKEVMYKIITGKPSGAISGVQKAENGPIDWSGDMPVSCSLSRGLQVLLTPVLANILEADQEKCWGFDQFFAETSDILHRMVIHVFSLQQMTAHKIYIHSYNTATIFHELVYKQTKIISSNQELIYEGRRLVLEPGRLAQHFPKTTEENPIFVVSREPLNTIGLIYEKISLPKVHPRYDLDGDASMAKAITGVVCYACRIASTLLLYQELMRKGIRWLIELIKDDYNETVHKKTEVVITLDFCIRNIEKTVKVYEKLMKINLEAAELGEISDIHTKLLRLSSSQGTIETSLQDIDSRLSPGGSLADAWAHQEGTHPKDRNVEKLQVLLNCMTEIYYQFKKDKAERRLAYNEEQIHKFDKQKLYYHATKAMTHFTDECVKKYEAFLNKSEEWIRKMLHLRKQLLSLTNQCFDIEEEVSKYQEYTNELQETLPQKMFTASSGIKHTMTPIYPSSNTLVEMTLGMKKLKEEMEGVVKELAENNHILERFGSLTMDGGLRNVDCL
Chain of Opiate κ(OP2, KOP) (P41145 whole entry): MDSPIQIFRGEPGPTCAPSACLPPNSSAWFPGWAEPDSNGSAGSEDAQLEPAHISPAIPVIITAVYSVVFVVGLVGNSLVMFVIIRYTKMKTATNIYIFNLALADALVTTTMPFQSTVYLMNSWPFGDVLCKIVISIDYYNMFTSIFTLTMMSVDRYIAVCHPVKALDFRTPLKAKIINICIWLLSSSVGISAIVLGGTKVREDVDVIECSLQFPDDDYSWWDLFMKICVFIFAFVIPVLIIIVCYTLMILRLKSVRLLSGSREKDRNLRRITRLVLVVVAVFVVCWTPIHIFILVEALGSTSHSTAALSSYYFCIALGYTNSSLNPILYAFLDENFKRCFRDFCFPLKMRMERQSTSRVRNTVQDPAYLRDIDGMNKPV
Chain of Peptidase, CTSG (Cathepsin G) (P08311 21-255): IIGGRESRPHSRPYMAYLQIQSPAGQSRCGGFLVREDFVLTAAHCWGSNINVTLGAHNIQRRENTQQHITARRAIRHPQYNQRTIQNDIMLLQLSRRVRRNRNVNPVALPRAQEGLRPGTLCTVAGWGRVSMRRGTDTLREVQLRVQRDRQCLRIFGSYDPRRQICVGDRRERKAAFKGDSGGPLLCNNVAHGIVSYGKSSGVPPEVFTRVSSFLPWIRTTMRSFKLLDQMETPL
Chain of cKit(h) (P10721 26-976): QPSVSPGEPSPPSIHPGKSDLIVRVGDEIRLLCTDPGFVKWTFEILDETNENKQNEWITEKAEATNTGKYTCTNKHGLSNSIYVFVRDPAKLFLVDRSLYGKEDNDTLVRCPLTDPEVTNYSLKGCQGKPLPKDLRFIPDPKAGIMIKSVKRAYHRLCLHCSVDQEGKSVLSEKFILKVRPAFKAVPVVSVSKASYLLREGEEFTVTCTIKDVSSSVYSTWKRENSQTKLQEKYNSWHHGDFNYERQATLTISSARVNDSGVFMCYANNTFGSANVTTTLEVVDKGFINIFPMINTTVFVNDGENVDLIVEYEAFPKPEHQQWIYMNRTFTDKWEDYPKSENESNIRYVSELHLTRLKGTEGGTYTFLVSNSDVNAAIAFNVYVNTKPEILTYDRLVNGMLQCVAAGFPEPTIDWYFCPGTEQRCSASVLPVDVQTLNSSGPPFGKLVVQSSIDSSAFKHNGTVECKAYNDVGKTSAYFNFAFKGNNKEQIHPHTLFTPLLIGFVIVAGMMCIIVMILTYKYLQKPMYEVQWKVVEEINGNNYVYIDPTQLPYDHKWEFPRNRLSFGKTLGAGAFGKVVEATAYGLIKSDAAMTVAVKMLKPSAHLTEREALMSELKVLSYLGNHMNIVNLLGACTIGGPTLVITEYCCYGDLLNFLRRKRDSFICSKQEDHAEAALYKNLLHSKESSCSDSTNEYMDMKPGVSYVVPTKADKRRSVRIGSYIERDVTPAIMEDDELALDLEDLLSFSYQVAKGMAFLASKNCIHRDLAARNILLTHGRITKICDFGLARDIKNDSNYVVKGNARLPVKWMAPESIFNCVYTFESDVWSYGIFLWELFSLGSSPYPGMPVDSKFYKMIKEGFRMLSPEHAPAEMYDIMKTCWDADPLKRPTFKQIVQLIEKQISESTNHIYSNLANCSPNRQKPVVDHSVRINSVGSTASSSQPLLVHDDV
Chain of PI3K (p110a/p85a)(h) (P42336 whole entry): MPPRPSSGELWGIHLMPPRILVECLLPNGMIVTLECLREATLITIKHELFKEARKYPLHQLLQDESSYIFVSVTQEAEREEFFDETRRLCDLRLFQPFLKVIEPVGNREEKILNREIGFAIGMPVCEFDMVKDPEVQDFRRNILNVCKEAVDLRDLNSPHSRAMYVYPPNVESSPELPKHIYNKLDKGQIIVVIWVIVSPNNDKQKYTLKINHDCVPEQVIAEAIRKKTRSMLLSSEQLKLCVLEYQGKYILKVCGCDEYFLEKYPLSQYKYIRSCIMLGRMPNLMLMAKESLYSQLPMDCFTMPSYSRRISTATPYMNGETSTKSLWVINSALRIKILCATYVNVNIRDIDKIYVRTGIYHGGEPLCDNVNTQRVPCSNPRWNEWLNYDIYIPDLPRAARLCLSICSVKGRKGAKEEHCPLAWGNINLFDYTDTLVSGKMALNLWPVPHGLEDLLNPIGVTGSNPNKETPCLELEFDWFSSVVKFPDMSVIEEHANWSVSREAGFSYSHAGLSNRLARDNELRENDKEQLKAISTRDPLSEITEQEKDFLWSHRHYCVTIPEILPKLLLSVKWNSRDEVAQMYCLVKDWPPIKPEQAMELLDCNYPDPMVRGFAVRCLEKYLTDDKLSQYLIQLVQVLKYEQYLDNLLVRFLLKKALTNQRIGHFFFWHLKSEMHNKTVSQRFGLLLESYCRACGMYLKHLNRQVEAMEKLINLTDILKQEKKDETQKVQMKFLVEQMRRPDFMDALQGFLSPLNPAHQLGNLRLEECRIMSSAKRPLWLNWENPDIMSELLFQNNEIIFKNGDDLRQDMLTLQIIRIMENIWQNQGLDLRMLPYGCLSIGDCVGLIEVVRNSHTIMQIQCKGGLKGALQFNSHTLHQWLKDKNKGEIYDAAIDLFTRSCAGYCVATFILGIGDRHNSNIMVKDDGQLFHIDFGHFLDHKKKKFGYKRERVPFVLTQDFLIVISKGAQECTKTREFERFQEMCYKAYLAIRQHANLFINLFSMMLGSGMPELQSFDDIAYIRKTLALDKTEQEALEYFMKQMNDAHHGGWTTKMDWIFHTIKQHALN
Chain of PI3K (p110a/p85a)(h) (P27986 whole entry partner): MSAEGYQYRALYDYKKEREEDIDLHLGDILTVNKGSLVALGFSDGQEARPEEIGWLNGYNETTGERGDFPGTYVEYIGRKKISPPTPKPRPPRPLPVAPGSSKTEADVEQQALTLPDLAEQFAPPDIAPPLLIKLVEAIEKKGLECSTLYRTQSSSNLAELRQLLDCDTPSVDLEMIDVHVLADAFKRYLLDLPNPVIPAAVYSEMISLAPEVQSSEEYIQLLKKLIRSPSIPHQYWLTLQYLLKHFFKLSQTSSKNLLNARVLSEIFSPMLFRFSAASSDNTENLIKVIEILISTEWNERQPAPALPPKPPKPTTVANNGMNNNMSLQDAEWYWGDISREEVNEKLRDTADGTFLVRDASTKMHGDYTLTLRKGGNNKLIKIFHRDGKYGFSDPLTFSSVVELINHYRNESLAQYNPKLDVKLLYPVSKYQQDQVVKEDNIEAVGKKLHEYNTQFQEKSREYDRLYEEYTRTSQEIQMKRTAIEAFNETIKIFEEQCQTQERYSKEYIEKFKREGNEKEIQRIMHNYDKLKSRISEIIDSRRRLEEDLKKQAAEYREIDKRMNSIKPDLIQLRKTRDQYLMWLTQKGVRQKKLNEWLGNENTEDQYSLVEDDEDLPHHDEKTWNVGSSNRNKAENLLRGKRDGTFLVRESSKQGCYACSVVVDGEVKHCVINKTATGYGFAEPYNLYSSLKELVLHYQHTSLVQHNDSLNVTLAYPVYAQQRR

In the case of `COc1ccc(OC)c(NS(=O)(=O)c2ccc(NC(=O)CCSc3ccc(C)cc3)cc2)c1` [Compound A41], the “% inh.” value [1] is reported as -2%, the “% inh.” value [2] is reported as 10% and the “Count Positive (# of wells)” value ([3]; 1.0E-04 M) is reported as 0. For the same molecule, the “Count Positive (# of wells)” value ([3]; 1.0E-05 M) was 1, the “Count Positive (# of wells)” value ([3]; 5.0E-05 M) was 0 and the “Count Positive (# of wells)” value ([3]; 5.0E-06 M) was 3. The “RAC1 activation (active GTP-bound RAC1)” value [4] was “blocked RAC1 activation”, the “Activity(%)” value [5] was 100% and the “Activity(%)” value [6] was 101%. The “Activity(%)” value [7] was 110%, the “Activity(%)” value [8] was 102% and the “% inh.” value [9] was 46%.

From PMC12281424, “A Rac-specific competitive inhibitor of guanine nucleotide binding reduces metastasis in triple-negative breast cancer” (Cell Reports Medicine, 2025)
